Test results from paper PMC9818021, “Targets, Mechanisms and Cytotoxicity of Half-Sandwich Ir(III) Complexes Are Modulated by Structural Modifications on the Benzazole Ancillary Ligand” (Cancers, 2022).

Experiments:
A549 cells [1] = test: DNA damage by phosphorylated H2AX, flow cytometry; assay type: cell-based, human; settings: 4 h
Protocol: DNA damage was measured using EpiQuik 8-OHdG DNA Damage Quantification Direct Kit (colorimetric) (Fischer, Waltham, MA, USA, P600396); The mitochondrial cytochrome C release was evaluated using the “Millipore’s FlowCellect Cytochrome C Kit (Millipore, FCCH100110)”. Lactate dehydrogenase activity release was measured in the culture medium using Cytotoxicity Detection Kit (Roche Diagnostic, Barcelona, Spain, 11 644 793 001). Protein synthesis was determined using Click-iT Plus O-propargyl-puromycin (OPP) Protein Synthesis Assay Kit (Invitrogen™, Waltham, MA, USA). Measurement of GSH/GSSG was determined with GSH/GSSG-Glo Assay (Promega, V6611). Measurements of OCR and ECAR with Seahorse XFp (Agilent Technologies) were determined using the XFp Cell Mito Stress Test Kit (103010-100) and XFp Glycolysis Stress Test Kit (103017-100). ATP measurement was determined with Cell Titer-Glo Luminescent Cell Viability Assay (Promega, Madison, WI, USA, G7570). Determination of DNA damage using phosphorylated H2AX measurement were performed as previously described. Cardiolipin oxidation using the fluorophore Nonyl Acridine Orange (NAO, Thermo Scientific, A1372) was performed as described. Cell viability was determined by Hoechst inclusion and Propidium iodide (PI) exclusion by standard protocols. TEM analysis were performed as described. Cell cycle analysis by flow cytometry and microarrays analysis were performed as described. Arrays data have been deposited in the ArrayExpress database at EMBL-EBI (www.ebi.ac.uk/arrayexpress) under accession number E-MTAB-860 (10 November 2022)

A549 cells [2] = test: Lactate dehydrogenase release; assay type: cell-based, human; settings: 16 µM, 1% FBS
Protocol: DNA damage was measured using EpiQuik 8-OHdG DNA Damage Quantification Direct Kit (colorimetric) (Fischer, Waltham, MA, USA, P600396); The mitochondrial cytochrome C release was evaluated using the “Millipore’s FlowCellect Cytochrome C Kit (Millipore, FCCH100110)”. Lactate dehydrogenase activity release was measured in the culture medium using Cytotoxicity Detection Kit (Roche Diagnostic, Barcelona, Spain, 11 644 793 001). Protein synthesis was determined using Click-iT Plus O-propargyl-puromycin (OPP) Protein Synthesis Assay Kit (Invitrogen™, Waltham, MA, USA). Measurement of GSH/GSSG was determined with GSH/GSSG-Glo Assay (Promega, V6611). Measurements of OCR and ECAR with Seahorse XFp (Agilent Technologies) were determined using the XFp Cell Mito Stress Test Kit (103010-100) and XFp Glycolysis Stress Test Kit (103017-100). ATP measurement was determined with Cell Titer-Glo Luminescent Cell Viability Assay (Promega, Madison, WI, USA, G7570). Determination of DNA damage using phosphorylated H2AX measurement were performed as previously described. Cardiolipin oxidation using the fluorophore Nonyl Acridine Orange (NAO, Thermo Scientific, A1372) was performed as described. Cell viability was determined by Hoechst inclusion and Propidium iodide (PI) exclusion by standard protocols. TEM analysis were performed as described. […]

A549 cells [3] = test: Viability of A549 proliferant vs quiescent cells; assay type: cell-based, human; settings: 24 h
Protocol: Cytotoxicity. MTT Assay and IC50 estimation. The cytotoxicity of 1[C,NH-Cl], 2[C,NMe-Cl], 3[N,NH-Cl]Cl, 4[N,NMe-Cl]Cl, 5[CNH2,NH-Cl]Cl, 6[CNH2,S-Cl]Cl, 7[CO,NH-Cl] and 8[CO,S-Cl] in A2780, A2780cis, SW480 and A549 carcinoma cells was evaluated by the MTT colorimetric assay. Cells were seeded in 96-well plates at 5000 cells per well and incubated at 37 °C, 5% CO2. […] Final DMSO concentration was kept below 0.7% in wells. For a negative control, one sequence of cells was left untreated and for vehicle control, cells treated with DMSO were included. For cell viability experiments preincubating with NAC (N-Acetyl-L-Cysteine), the cells were pre-treated with NAC, 10 mM for 2 h before the incubation with complex 1[C,NH-Cl] for 24 h. Then, the medium was removed from the wells, and 100 µL MTT (5 mg/mL) was added. After an incubation time of 4 h, 100 μL of solubilizing detergent solution (SDS, 10% in HCL 0.01 M) was added and kept in the incubator overnight. Cell growth inhibition was detected by measuring the absorbance of each well at 595 nm using a BioTek Cytation5 microplate reader. Each test was repeated in quadruplicate in three independent experiments for each cell line. The percentage of survival cells was calculated using absorbance measurements compared with control and the IC50 estimation using Graph Pad Prism version 6.01.

[4] = Drug uptake by cells (ICP-MS); assay type: cell-based; settings: 16 μM, 400,000 cells, 4 h
Protocol: 1[C,NH] reduced the lung tumor burden. Prior the performance of in vivo studies, the drug uptake was determined. The amount of 1[C,NH] entering the cell was estimated after administration of 16 μM of 1[C,NH] to 400,000 cells. The intracellular iridium content was assessed after 4 h by ICP-MS, and the percentage of drug taken up by cells was 1.7%. Then, acute toxicity and bio distribution of 1[C,NH] was studied in healthy mice (BALB/c). […] Antitumor efficacy was studied using an orthotopic model of lung cancer in nude mice (Figure 8B). A549-luc cells (A549 cells marked with luciferase) were used to induce the tumor and 20 days after the injection of cells, we proceeded to the administration of 4 doses (0.9 mg/kg) of 1[C,NH] on alternate days. […] However, we cannot exclude the appearance of toxic effects after repeated administrations over longer periods of time. […] To differentiate the effect of 1[C,NH] on the primary tumor and on the affected nodes, at day 37, the animals were sacrificed, and luciferase activity, as a marker on the presence of tumor cells, was measured. […] Moreover, lung mice were stained with a monoclonal antibody against a human cytokeratin (only A549 tumor cells of human origin were stained) (Figure 8D). […] In addition, other factors influence the efficacy of a drug on the primary tumor and not on the metastasis, cell-cell interactions, matrix in the nodes, etc. […]

BALB/c mice = test: Biodistribution (ICP-MS of organs); assay type: in vivo, mouse; settings: 4 h after i.v. injection
Protocol: Biodistribution studies: BALB/c mice were injected via the tail vein with 100 µL of 1[C,NH] dissolved in PBS. Then, 4 h after the injection, the animals (n = 3) were sacrificed, and the following organs were removed: kidney, spleen, liver, heart, lung, pancreas, intestine, ovary and stomach. They were kept at −80 °C until their analysis at the Cactus-Lugo Instrumental Analysis Unit. Solutions were diluted to a final volume of 10 mL MilliQ water and measured on an Agilent 7700x-ICP-MS.

Cc1c(C)c(C)[c-](C)c1C.[Cl][Ir]1[c]2ccccc2-c2[nH]c3ccccc3[n+]21 [1[C,NH], [(η^5-Cp*)IrCl(κ^2-N,C-pbim)]]
Percentage of A549 positive cells to damage on DNA (A549 cells [1]; 8 μM): 2%
Percentage of A549 positive cells to damage on DNA (A549 cells [1]; 16 μM): 30%
Percentage of A549 positive cells to damage on DNA (A549 cells [1]; 24 μM): 87%
LDH release to the medium (A549 cells [2]): only began after 8 h of incubation
IC50 (A549 cells [3]; A549 non-proliferating (quiescent) condition): 17 µM
IC50 (A549 cells [3]; A549 proliferating condition): 9.5 µM
Percentage of drug taken up by cells [4]: 1.7%
Tissues with the highest accumulation (BALB/c mice): liver, kidneys and lungs
